Data: BigSolDB 2.1

O=C(O)c1cccnc1Nc1cccc(C(F)(F)F)c1
solubility (mole fraction)
Settings | 288.15 K | 293.15 K | 298.15 K | 303.15 K | 308.15 K | 313.15 K | 318.15 K | 323.15 K | 328.15 K
in MTBE | 0.0428 | 0.0471 | 0.0505 | 0.0549 | 0.0591 | 0.0663 | 0.073 | 0.08 | 0.0854
in acetone | 0.0273 | 0.0296 | 0.0315 | 0.034 | 0.037 | 0.0418 | 0.048 | 0.053 | 0.0572
in acetonitrile | – | 0.00125 | 0.0018 | 0.00235 | 0.00319 | 0.00437 | 0.00595 | 0.00745 | 0.00898
in cyclohexane | 0.00268 | 0.00379 | 0.00512 | 0.00674 | 0.00887 | 0.0114 | 0.0137 | 0.0158 | 0.0182
in diisopropyl ether | 0.00814 | 0.0119 | 0.0146 | 0.0183 | 0.022 | 0.0262 | 0.0303 | 0.0357 | 0.0424
in ethanol | 0.00748 | 0.00873 | 0.00935 | 0.0113 | 0.0133 | 0.0153 | 0.0177 | 0.0197 | 0.0211
in ethyl acetate | 0.0243 | 0.0261 | 0.0279 | 0.0308 | 0.0346 | 0.0393 | 0.0439 | 0.0494 | 0.0544
in isopropanol | 0.00751 | 0.00844 | 0.00941 | 0.0107 | 0.0131 | 0.0152 | 0.0179 | 0.0209 | 0.0235
in isopropyl acetate | 0.0228 | 0.0264 | 0.029 | 0.0324 | 0.0372 | 0.0435 | 0.05 | 0.0564 | 0.0637
in methanol | 0.00655 | 0.00766 | 0.00862 | 0.00967 | 0.0107 | 0.0118 | 0.0135 | 0.0151 | 0.0171
in n-heptane | 0.00171 | 0.00276 | 0.00404 | 0.00562 | 0.00726 | 0.00951 | 0.0121 | 0.0145 | 0.0172
in n-hexane | 0.00145 | 0.00256 | 0.00382 | 0.00539 | 0.00678 | 0.00896 | 0.011 | 0.0131 | 0.0155
in n-propanol | 0.00879 | 0.00999 | 0.011 | 0.0129 | 0.0147 | 0.0174 | 0.0202 | 0.0232 | 0.0266
in toluene | – | 0.00154 | 0.00242 | 0.00395 | 0.00532 | 0.0073 | 0.00991 | 0.0133 | 0.0172
